For one test, the system named is HL-1. The experiment in a line: protection of cardiomyocytes from stress damage, SAR follow-up, cell-based, panel, H9c2 and HL-1, H2O2, 2-deoxyglucose, ATP luminescence (AID 651642).
The next test deals with H9c2. The test is described as above.
[1] abbreviates: H9c2/HL-1 cardiomyocyte 2-deoxyglucose damage, run 1, with 2-deoxyglucose.
Where [2] appears, read: H9c2/HL-1 cardiomyocyte 2-deoxyglucose damage, run 2, with 2-deoxyglucose.
[3] abbreviates: H9c2/HL-1 cardiomyocyte 2-deoxyglucose damage, run 3, with 2-deoxyglucose.
[4] abbreviates: H9c2/HL-1 cardiomyocyte 2-deoxyglucose damage, run 4, with 2-deoxyglucose.
The mark [5] stands for this setting: H9c2/HL-1 cardiomyocyte H2O2 oxidative damage, run 1, with H2O2.
Setting [6] is: H9c2/HL-1 cardiomyocyte H2O2 oxidative damage, run 2, with H2O2.
Where [7] appears, read: H9c2/HL-1 cardiomyocyte H2O2 oxidative damage, run 3, with H2O2.
Setting [8] is: H9c2/HL-1 cardiomyocyte H2O2 oxidative damage, run 4, with H2O2.
Setting [9] is: H9c2/HL-1 cardiomyocyte 2-deoxyglucose damage, mean of runs, with 2-deoxyglucose, mean IC50 across panel.
Setting [10] is: H9c2/HL-1 cardiomyocyte H2O2 oxidative damage, mean of runs, with H2O2, mean IC50 across panel.

Some results are limits rather than exact numbers.

`CCOC(=O)c1ccccc1NC(=O)c1cc(-c2cc(OC)c(OC)c(OC)c2)nc2ccccc12`: the IC50 with HL-1 (setting [1]) is 2.72 µM; with HL-1 (setting [2]) it was 3 µM; with HL-1 (setting [3]) it was more than 79 µM; with HL-1 (setting [4]), more than 79 µM; in the test with HL-1 (setting [5]), more than 79 µM; with HL-1 (setting [6]), more than 79 µM. Further, the IC50 in the test with HL-1 (setting [7]) is more than 79 µM; in the test on HL-1 (setting [8]), 6.51 µM; in the test on H9c2 (setting [9]), more than 79 µM; in the test with H9c2 (setting [1]), more than 79 µM; in the test with H9c2 (setting [2]), more than 79 µM; in the test with H9c2 (setting [3]) it was more than 79 µM. Moreover, the IC50 with H9c2 (setting [4]) is more than 79 µM; with H9c2 (setting [5]), 4.3 µM; in the test on H9c2 (setting [6]) it was 4.52 µM; in the test on H9c2 (setting [7]) it was more than 79 µM; with H9c2 (setting [8]) it was more than 79 µM.
Turning to `CCOC(=O)c1ccc(NC(=O)c2cc(-c3cc(OC)c(OC)c(OC)c3)nc3ccccc23)cc1`, the IC50 in the test on HL-1 (setting [9]), in the test on HL-1 (setting [1]), with HL-1 (setting [2]), in the test with HL-1 (setting [3]), in the test with HL-1 (setting [4]) and in the test with HL-1 (setting [10]) was more than 79 µM throughout. For the same compound, the IC50 with HL-1 (setting [5]), in the test with HL-1 (setting [6]), in the test with HL-1 (setting [7]), with HL-1 (setting [8]), with H9c2 (setting [9]) and with H9c2 (setting [1]) was more than 79 µM in each case. Moreover, the IC50 in the test with H9c2 (setting [2]) is more than 79 µM; with H9c2 (setting [3]), more than 79 µM; in the test with H9c2 (setting [4]) it was more than 79 µM; in the test with H9c2 (setting [5]), more than 79 µM; in the test with H9c2 (setting [6]), 21.5 µM; in the test with H9c2 (setting [7]), more than 79 µM. Moreover, the IC50 in the test on H9c2 (setting [8]) was more than 79 µM.
As for `COc1ccc2c(c1OC)C(=O)N1c3ccccc3C(=O)N(Cc3ccccn3)C21` (stereo not drawn), the IC50 in the test with HL-1 (setting [9]), with HL-1 (setting [1]), with HL-1 (setting [2]), with HL-1 (setting [3]), in the test with HL-1 (setting [4]) and with HL-1 (setting [10]) was more than 79 µM each time. In addition, the IC50 in the test with HL-1 (setting [5]), with HL-1 (setting [6]), with HL-1 (setting [7]), in the test on HL-1 (setting [8]), with H9c2 (setting [9]) and in the test with H9c2 (setting [1]) was more than 79 µM each time. The IC50 is more than 79 µM with H9c2 (setting [2]); more than 79 µM with H9c2 (setting [3]); more than 79 µM in the test with H9c2 (setting [4]); 7.56 µM in the test on H9c2 (setting [5]); 10.3 µM in the test on H9c2 (setting [6]); more than 79 µM in the test on H9c2 (setting [7]). Also, the half-maximal inhibitory concentration (IC50) with H9c2 (setting [8]) is more than 79 µM.
As to `CCOC(=O)c1cccc(NC(=O)CNC(=O)c2cc(-c3cc(OC)c(OC)c(OC)c3)nc3ccc(C)cc23)c1`, the IC50 came out at 2.2 µM in the test on HL-1 (setting [9]); 1.1 µM in the test on HL-1 (setting [1]); 1.45 µM in the test on HL-1 (setting [2]); 2.9 µM in the test with HL-1 (setting [3]); 3.35 µM in the test on HL-1 (setting [4]); 3.04 µM in the test with HL-1 (setting [10]). The IC50 was 2.88 µM in the test with HL-1 (setting [5]); 3.32 µM in the test with HL-1 (setting [6]); 1.46 µM with HL-1 (setting [7]); 4.48 µM in the test on HL-1 (setting [8]); 2.67 µM in the test with H9c2 (setting [9]); 3.13 µM with H9c2 (setting [1]). Moreover, the IC50 in the test on H9c2 (setting [2]) is 3.54 µM; in the test on H9c2 (setting [3]), 1.85 µM; with H9c2 (setting [4]) it was 2.18 µM; with H9c2 (setting [10]), 0.665 µM; in the test on H9c2 (setting [5]), 0.726 µM; with H9c2 (setting [6]), 0.842 µM. Also, the results for the IC50 in the test with H9c2 (setting [7]) and in the test with H9c2 (setting [8]) were 0.517 µM and 0.577 µM, respectively.
On to `COc1ccc2nc(-c3cc(OC)c(OC)c(OC)c3)cc(C(=O)NCC(=O)Nc3cccc(C(C)=O)c3)c2c1`, for which the IC50 in the test on HL-1 (setting [9]) amounted to 2.9 µM; in the test with HL-1 (setting [1]) it was 1.27 µM; with HL-1 (setting [2]) it was 3.22 µM; in the test on HL-1 (setting [3]) it was 3.47 µM; in the test on HL-1 (setting [4]), 3.64 µM; in the test with HL-1 (setting [10]), 5.12 µM. Also, the IC50 amounted to 4.48 µM in the test on HL-1 (setting [5]); 6.94 µM in the test with HL-1 (setting [6]); 4.08 µM in the test on HL-1 (setting [7]); 5 µM in the test with HL-1 (setting [8]); 2.63 µM in the test with H9c2 (setting [9]); 3.05 µM with H9c2 (setting [1]). For the same compound, the IC50 is 3.53 µM in the test with H9c2 (setting [2]); 1.89 µM with H9c2 (setting [3]); 2.03 µM in the test on H9c2 (setting [4]); 0.761 µM in the test on H9c2 (setting [5]); 0.868 µM with H9c2 (setting [6]); more than 79 µM in the test with H9c2 (setting [7]). Moreover, the IC50 with H9c2 (setting [8]) was determined as 0.324 µM.
Turning to `COc1cc(-c2cc(C(=O)Nc3cccc(C(C)=O)c3)c3ccccc3n2)cc(OC)c1OC`, the IC50 was 8.62 µM in the test with HL-1 (setting [9]); 5.68 µM in the test on HL-1 (setting [1]); 6.27 µM in the test on HL-1 (setting [2]); 8.63 µM in the test on HL-1 (setting [3]); 13.9 µM in the test on HL-1 (setting [4]); 7.06 µM in the test with HL-1 (setting [10]). Also, the IC50 in the test on HL-1 (setting [5]) was 5.59 µM; in the test on HL-1 (setting [6]) it was 5.68 µM; with HL-1 (setting [7]) it was 6.71 µM; with HL-1 (setting [8]) it was 10.3 µM; with H9c2 (setting [9]), more than 79 µM; in the test with H9c2 (setting [1]), more than 79 µM. The IC50 in the test on H9c2 (setting [2]) is more than 79 µM; with H9c2 (setting [3]) it was more than 79 µM; in the test with H9c2 (setting [4]), more than 79 µM; with H9c2 (setting [5]), 3.74 µM; in the test with H9c2 (setting [6]), 4.04 µM; in the test on H9c2 (setting [7]), more than 79 µM. This compound showed an IC50 with H9c2 (setting [8]) of 3.69 µM.

The values are drawn from PubChem BioAssay AID651642 (Sanford-Burnham Center for Chemical Genomics, 2012).
